Data: PMC4643674 (Journal of medicinal chemistry, 2013)

Experiments:
[1] = molecular target: GluN1/GluN2D (Rattus norvegicus, UniProt Q62645); type: cell-based
[2] = molecular target: GluA3 (Rattus norvegicus, UniProt P19492); test: off-target two-electrode voltage clamp, GluA3; type: cell-based; details: read-out: ITEST / ICONTROL (mean ± SEM, %)
[3] = molecular target: GluK1 (Rattus norvegicus, UniProt P22756); test: off-target two-electrode voltage clamp, GluK1; type: cell-based; details: read-out: ITEST / ICONTROL (mean ± SEM, %)
Sequence of GluK1 (P22756 31-949): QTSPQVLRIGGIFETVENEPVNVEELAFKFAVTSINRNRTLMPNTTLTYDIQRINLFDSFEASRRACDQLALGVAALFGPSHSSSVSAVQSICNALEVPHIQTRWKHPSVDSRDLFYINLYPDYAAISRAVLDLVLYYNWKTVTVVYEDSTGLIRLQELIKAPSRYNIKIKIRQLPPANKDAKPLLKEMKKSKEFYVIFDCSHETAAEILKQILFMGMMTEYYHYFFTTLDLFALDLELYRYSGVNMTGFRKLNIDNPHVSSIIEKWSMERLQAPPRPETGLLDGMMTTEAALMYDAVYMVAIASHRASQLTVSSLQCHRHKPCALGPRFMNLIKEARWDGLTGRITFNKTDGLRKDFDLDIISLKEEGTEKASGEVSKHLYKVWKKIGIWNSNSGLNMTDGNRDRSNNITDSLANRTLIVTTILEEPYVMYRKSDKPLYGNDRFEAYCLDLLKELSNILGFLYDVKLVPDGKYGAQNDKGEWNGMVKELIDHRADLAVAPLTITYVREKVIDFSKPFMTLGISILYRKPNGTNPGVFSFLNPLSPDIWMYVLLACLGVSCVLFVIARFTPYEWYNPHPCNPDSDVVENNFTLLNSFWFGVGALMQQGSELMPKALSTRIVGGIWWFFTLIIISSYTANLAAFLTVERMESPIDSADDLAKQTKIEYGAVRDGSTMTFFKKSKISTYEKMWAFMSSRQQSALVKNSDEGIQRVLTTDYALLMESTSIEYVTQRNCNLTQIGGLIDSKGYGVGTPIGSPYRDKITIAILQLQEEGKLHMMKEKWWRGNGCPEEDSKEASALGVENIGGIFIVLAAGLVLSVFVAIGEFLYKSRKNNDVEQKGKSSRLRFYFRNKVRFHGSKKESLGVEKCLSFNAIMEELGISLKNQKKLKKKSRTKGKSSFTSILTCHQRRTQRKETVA

[4] = system: 42 different ion channels, G-protein coupled receptors, and transporters; test: NIMH PDSP primary binding assay; details: 5 µM compound
[5] = plasma stability, human; type: in vitro ADME; details: two-hour time-course, Figure S2
[6] = plasma stability, rat; type: in vitro ADME; details: two-hour time-course, Figure S2
[7] = plasma stability, mouse; type: in vitro ADME; details: two-hour time-course, Figure S2
[8] = system: GluN2D receptor mutants (Q801Y, L705F and A752V); test: inhibition of mutant GluN2D receptors; type: cell-based; details: mutants vs wild type GluN2D; Figure S1
[9] = system: MDR1-MDCK; test: MDR1-MDCK permeability assay; type: in vitro ADME, canine; details: A-to-B; 5 µM; 120 minutes
[10] = system: P-gp (MDR1); test: MDR1-MDCK permeability assay; type: in vitro ADME, canine; details: dog; for Papp B→A at 120 min, 5 µM / Papp A→B at 120 min, 5 µM: MDCK-MDR1, pH 7.4, Papp; for recovery at 120 min, 5 µM: MDCK-MDR1, pH 7.4, Recovery (%)
[11] = human liver microsomal stability; type: in vitro ADME
[12] = molecular target: GluN1/GluN2A (Rattus norvegicus, UniProt P35439+Q00959); type: cell-based
[13] = molecular target: GluN1/GluN2B (Rattus norvegicus, UniProt P35439+Q00960); type: cell-based
Sequence of GluN1/GluN2B (Q00960 27-1482, other chains not shown): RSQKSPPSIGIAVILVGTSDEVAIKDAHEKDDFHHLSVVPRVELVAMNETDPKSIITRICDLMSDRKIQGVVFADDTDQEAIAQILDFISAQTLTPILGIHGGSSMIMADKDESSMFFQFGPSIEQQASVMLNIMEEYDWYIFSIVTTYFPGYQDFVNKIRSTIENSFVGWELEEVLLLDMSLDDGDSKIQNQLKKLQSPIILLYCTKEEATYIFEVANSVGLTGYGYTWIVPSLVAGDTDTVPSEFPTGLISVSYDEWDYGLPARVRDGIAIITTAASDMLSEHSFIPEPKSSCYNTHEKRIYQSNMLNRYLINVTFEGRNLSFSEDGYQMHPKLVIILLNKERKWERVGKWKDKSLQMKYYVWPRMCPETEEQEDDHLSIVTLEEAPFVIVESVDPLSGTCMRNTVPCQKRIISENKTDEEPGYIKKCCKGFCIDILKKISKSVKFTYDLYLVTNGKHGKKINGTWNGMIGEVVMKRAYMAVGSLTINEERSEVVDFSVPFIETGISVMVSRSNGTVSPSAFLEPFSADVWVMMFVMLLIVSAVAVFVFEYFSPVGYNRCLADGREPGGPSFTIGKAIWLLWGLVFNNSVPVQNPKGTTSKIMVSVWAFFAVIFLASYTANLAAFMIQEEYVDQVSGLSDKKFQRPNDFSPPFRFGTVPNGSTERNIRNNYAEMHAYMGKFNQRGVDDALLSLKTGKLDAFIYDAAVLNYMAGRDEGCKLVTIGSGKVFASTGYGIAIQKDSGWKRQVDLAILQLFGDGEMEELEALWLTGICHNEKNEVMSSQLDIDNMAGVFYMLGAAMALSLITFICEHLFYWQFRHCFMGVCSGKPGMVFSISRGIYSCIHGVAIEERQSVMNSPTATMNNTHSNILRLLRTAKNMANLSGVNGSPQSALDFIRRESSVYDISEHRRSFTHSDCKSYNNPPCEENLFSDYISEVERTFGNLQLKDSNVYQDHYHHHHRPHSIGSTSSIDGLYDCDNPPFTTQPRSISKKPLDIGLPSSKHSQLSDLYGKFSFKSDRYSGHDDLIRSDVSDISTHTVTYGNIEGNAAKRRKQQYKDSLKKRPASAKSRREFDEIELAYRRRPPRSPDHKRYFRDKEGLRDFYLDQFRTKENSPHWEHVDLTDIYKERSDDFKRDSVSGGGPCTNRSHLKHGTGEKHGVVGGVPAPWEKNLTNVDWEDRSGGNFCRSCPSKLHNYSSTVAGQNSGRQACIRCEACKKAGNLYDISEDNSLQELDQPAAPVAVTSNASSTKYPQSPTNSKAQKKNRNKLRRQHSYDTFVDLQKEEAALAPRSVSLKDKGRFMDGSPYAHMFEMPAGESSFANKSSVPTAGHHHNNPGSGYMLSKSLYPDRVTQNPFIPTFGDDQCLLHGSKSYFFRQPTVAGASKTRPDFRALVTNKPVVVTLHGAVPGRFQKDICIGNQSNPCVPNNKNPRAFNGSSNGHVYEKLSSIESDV

[14] = molecular target: GluN1/GluN2C (Rattus norvegicus, UniProt P35439+Q00961); type: cell-based
[15] = molecular target: GluN1/GluN2D (Rattus norvegicus, UniProt P35439+Q62645); type: cell-based
Sequence of GluN1/GluN2D (Rattus norvegicus, UniProt P35439+Q62645) (Q62645 28-1323, other chains not shown): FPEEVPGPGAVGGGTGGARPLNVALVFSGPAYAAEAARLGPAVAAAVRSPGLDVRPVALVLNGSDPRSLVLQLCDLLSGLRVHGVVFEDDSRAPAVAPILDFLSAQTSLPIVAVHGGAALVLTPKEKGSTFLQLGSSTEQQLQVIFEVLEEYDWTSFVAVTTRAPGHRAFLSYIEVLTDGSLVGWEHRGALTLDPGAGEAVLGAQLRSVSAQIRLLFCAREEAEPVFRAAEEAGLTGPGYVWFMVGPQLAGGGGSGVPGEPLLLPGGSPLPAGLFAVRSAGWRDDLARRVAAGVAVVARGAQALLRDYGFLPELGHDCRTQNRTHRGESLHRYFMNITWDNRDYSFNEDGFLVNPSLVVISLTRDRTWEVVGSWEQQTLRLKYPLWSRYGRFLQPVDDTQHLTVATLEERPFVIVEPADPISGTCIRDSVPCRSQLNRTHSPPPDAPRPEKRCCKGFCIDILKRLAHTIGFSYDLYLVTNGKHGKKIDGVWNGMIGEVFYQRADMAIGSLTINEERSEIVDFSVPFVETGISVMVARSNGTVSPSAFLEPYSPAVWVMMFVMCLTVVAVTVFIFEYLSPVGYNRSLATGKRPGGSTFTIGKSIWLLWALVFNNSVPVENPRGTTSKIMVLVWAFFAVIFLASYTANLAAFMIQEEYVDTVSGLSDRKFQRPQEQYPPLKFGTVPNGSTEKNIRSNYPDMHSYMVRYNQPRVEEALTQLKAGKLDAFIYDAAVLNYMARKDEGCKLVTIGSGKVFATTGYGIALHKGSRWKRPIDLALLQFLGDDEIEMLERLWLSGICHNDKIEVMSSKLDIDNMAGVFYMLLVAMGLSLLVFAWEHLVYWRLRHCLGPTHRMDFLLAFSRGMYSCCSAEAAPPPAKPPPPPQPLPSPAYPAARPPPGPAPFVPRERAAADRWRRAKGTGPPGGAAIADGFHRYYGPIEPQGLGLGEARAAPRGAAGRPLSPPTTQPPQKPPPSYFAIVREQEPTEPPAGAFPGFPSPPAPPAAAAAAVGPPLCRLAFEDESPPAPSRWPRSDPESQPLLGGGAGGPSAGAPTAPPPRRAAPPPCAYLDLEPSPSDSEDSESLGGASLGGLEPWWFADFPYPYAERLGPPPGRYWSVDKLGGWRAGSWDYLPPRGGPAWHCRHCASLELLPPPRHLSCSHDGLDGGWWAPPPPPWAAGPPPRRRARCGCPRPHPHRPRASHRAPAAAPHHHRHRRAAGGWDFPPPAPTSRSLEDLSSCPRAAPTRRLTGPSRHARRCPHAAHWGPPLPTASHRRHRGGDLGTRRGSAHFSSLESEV

[16] = system: NMDA receptor subtypes; test: two-electrode voltage clamp, activity statements without named subtype; type: cell-based; details: receptor subtype not named
[17] = human, liver microsomes, pH 7.4

Sequence of GluN1/GluN2D (Rattus norvegicus, UniProt Q62645) (Q62645 28-1323, other chains not shown): as above
Sequence of GluA3 (P19492 23-888): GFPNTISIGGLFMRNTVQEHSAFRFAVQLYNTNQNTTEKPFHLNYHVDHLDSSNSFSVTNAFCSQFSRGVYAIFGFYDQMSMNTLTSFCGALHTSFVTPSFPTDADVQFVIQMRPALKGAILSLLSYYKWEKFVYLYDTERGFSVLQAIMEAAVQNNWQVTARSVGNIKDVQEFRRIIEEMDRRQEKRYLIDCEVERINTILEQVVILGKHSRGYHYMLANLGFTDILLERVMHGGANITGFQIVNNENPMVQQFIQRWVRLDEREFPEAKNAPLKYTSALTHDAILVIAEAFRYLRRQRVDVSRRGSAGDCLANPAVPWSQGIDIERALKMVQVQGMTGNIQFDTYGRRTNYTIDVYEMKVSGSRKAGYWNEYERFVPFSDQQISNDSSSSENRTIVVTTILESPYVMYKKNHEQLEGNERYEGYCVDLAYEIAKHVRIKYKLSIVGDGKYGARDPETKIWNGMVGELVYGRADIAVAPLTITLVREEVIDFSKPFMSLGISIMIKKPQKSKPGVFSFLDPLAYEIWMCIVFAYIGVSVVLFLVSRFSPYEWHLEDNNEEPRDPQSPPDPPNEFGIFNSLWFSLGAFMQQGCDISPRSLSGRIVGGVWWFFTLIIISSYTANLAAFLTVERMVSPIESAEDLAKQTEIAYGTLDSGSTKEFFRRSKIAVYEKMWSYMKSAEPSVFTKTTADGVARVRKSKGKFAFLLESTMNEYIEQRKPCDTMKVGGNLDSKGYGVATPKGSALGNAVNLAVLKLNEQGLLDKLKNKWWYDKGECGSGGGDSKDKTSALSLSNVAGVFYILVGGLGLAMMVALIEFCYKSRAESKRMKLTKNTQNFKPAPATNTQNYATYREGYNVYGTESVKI

O=C(O)CCC(=O)N1N=C(c2c(-c3ccc(Cl)cc3)c3ccccc3[nH]c2=O)C[C@H]1c1ccc(Cl)cc1 [Compound 69]
selectivity over other NMDA receptor subunits ([1]; GluN2D/GluN2C vs other subunits): over 70 fold | fold more potent at GluN2D-containing receptors than the R-enantiomer, 70 ([1]; S-enantiomer vs R-enantiomer): 11 fold

O=C(O)/C=C/C(=O)N1N=C(c2c(-c3ccc(Br)cc3)c3ccccc3[nH]c2=O)CC1c1ccc(Cl)cc1 (stereo not drawn) [Compound 58, (E)-4-{3-[4-(4-Bromophenyl)-2-oxo-1,2-dihydroquinolin-3-yl]-5-(4-chlorophenyl)-4,5-dihydro-1H-pyrazol-1-yl}-4-oxobut-2-enoic acid]
remaining activity at 3 µM [2]: 100 ± 1.1% | remaining activity at 3 µM [3]: 100 ± 4.4% | effect in primary binding assay [4]: minimal effect | plasma stability [5]: minimal degradation | plasma stability [6]: minimal degradation | plasma stability [7]: minimal degradation

O=C(O)CCC(=O)N1N=C(c2c(-c3ccc(Cl)cc3)c3ccccc3[nH]c2=O)CC1c1ccc(Cl)cc1 (stereo not drawn) [Compound 26, 4-{5-(4-Chlorophenyl)-3-[4-(4-chlorophenyl)-2-oxo-1,2-dihydroquinolin-3-yl]-4,5-dihydro-1H-pyrazol-1-yl}-4-oxobutanoic acid]
effect of mutations on degree of inhibition [8]: significantly reduced the degree of inhibition | effect in primary binding assay [4]: minimal effect | plasma stability [5]: minimal degradation | plasma stability [6]: minimal degradation | plasma stability [7]: minimal degradation | Papp, Avg [9]: 0.47 10^−6cm/s | Papp B→A at 120 min, 5 µM ([10]; determination 1, B-to-A): 334 nm/s | Papp B→A at 120 min, 5 µM ([10]; determination 2, B-to-A): 179 nm/s | microsomal CLint at 1 µM [11, 17]: < 20 µL/min/mg | degradation in human liver microsomes (in words) ([11]; over the 60 minute assay): minimal degradation

O=C(CCCO)N1N=C(c2c(-c3ccc(Cl)cc3)c3ccccc3[nH]c2=O)CC1c1ccc(Cl)cc1 (stereo not drawn) [Compound 64, 4-(4-Chlorophenyl)-3-[5-(4-chlorophenyl)-1-(4-hydroxybutanoyl)-4,5-dihydro-1H-pyrazol-3-yl]quinolin-2(1H)-one]
IC50 [12]: 62 µM | IC50 [13]: 33 µM | IC50 [14]: 1.7 µM | IC50 [15]: 0.69 µM | plasma stability [5]: minimal degradation | plasma stability [6]: minimal degradation | plasma stability [7]: minimal degradation | efflux ratio at 120 min, 5 µM ([10]; MDCK-MDR1, pH 7.4): 26 | Papp B→A at 120 min, 5 µM ([10]; Avg, B-to-A): 645 nm/s | Papp A→B at 120 min, 5 µM ([10]; determination 1, A-to-B): 24.5 nm/s | Papp B→A at 120 min, 5 µM ([10]; determination 1, B-to-A): 662 nm/s | Papp A→B at 120 min, 5 µM ([10]; determination 2, A-to-B): 24.8 nm/s | Papp B→A at 120 min, 5 µM ([10]; determination 2, B-to-A): 627 nm/s | recovery at 120 min, 5 µM ([10]; A-to-B): 43% | recovery at 120 min, 5 µM ([10]; B-to-A): 73% | half-life at 1 µM [11, 17]: 13 min | microsomal CLint at 1 µM [11, 17]: 110 µL/min/mg | remaining at 0 h, 1 µM [11, 17]: 100% | remaining at 0.5 h, 1 µM [11, 17]: 24% | remaining at 1 h, 1 µM [11, 17]: 6.5%

O=C(CCCF)N1N=C(c2c(-c3ccc(Cl)cc3)c3ccccc3[nH]c2=O)CC1c1ccc(Cl)cc1 (stereo not drawn) [Compound 68, 4-(4-Chlorophenyl)-3-[5-(4-chlorophenyl)-1-(4-fluorobutanoyl)-4,5-dihydro-1H-pyrazol-3-yl]quinolin-2(1H)-one]
activity (in words) [16]: inactive | Papp A→B at 120 min, 5 µM ([10]; determination 1, A-to-B): 45.1 nm/s | Papp B→A at 120 min, 5 µM ([10]; determination 1, B-to-A): 93.2 nm/s | Papp A→B at 120 min, 5 µM ([10]; determination 2, A-to-B): 32.4 nm/s | Papp B→A at 120 min, 5 µM ([10]; determination 2, B-to-A): 97.2 nm/s | microsomal CLint at 1 µM [11, 17]: 40 µL/min/mg | remaining at 0 h, 1 µM [11, 17]: 100%
